From patent publication US10179771B2 (GALAPAGOS NV, priority 2014, dated 2019)

Columns and labels:
[1] = biological target: T1, Recombinant human JAK1 catalytic domain (Homo sapiens, UniProt P23458); experiment: JAK1 inhibition assay (polyGT substrate / Ulight-JAK1 peptide assay); assay type: biochemical; settings: Comparative Compounds (Table VI)
T1 construct: Recombinant human JAK1 (catalytic domain, amino acids 866-1154; catalog number PV4774); purchased Invitrogen PV4774
Protocol: Recombinant human JAK1 catalytic domain (amino acids 850-1154; catalog number 08-144) was purchased from Carna Biosciences. 10 ng of JAK1 is incubated with 12.5 μg polyGT substrate (Sigma catalog number P0275) in kinase reaction buffer (15 mM Tris-HCl pH 7.5, 1 mM DTT, 0.01% Tween-20, 10 mM MgCl2, 2 μM non-radioactive ATP, 0.25 ρCi ^33P-gamma-ATP (GE Healthcare, catalog number AH9968) final concentrations) with or without 5 μL containing test compound or vehicle (DMSO, 1% final concentration), in a total volume of 25 μL, in a polypropylene 96-well plate (Greiner, V-bottom). After 45 min at 30° C., reactions are stopped by adding of 25 μL/well of 150 mM phosphoric acid. All of the terminated kinase reaction is transferred to prewashed (75 mM phosphoric acid) 96 well filter plates (Perkin Elmer catalog number 6005177) using a cell harvester (Perkin Elmer). Plates are washed 6 times with 300 μL per well of a 75 mM phosphoric acid solution and the bottom of the plates is sealed. 40 μL/well of Microscint-20 is added, the top of the plates is sealed and readout is performed using the Topcount (Perkin Elmer). Kinase activity is calculated by subtracting counts per min (cpm) obtained in the presence of a positive control inhibitor (10 μM staurosporine) from cpm obtained in the presence of vehicle. The ability of a test compound to inhibit this activity is determined as:
(§1) [formula] • RFU test compound=RFU determined for sample with test compound present • RFU control=RFU determined for sample with positive control inhibitor • RFU vehicle=RFU determined in the presence of vehicle
(§2) Dose dilution series are prepared for the compounds enabling the testing of dose-response effects in the JAK1 assay and the calculation of the IC50 for each compound. Each compound is routinely tested at concentration of 20 μM followed by a 1/3 serial dilution, 8 points (20 μM-6.67 μM-2.22 μM-740 nM-247 nM-82 nM-27 nM-9 nM) in a final concentration of 1% DMSO. When potency of compound series increased, more dilutions are prepared and/or the top concentration was lowered (e.g. 5 μM, 1 μM).
Recombinant human JAK1 (catalytic domain, amino acids 866-1154; catalog number PV4774) was purchased from Invitrogen. 1 ng of JAK1 was incubated with 20 nM Ulight-JAK1 (tyr1023) peptide (Perkin Elmer catalog number TRF0121) in kinase reaction buffer (25 mM MOPS pH6.8, 0.01% Brij-35, 5 mM MgCl2, 2 mM DTT, 7 μM ATP) with or without 4 μL containing test compound or vehicle (DMSO, 1% final concentration), in a total volume of 20 μL, in a white 384 Opti plate (Perkin Elmer, catalog number 6007290). After 60 min at room temperature, reactions were stopped by adding 20 μL/well of detection mixture (1× detection buffer (Perkin Elmer, catalog number CR97-100C), 0.5 nM Europium-anti-phosphotyrosine (PT66) (Perkin Elmer, catalog number AD0068), 10 mM EDTA). Readout is performed using the Envision with excitation at 320 nm and measuring emission at 615 nm (Perkin Elmer). Kinase activity was calculated by subtracting relative fluorescence units (RFU) obtained in the presence of a positive control inhibitor (10 μM staurosporine) from RFU obtained in the presence of vehicle. The ability of a test compound to inhibit this activity was determined as: Percentage inhibition=((RFU determined for sample with test compound present−RFU determined for sample with positive control inhibitor) divided by (RFU determined in the presence of vehicle−RFU determined for sample with positive control inhibitor))*100.
(§3) Dose dilution series were prepared for the compounds enabling the testing of dose-response effects in the JAK1 assay and the calculation of the IC50 for the compound. Each compound is routinely tested at concentration of 20 μM followed by a 1/5 serial dilution, 10 points in a final concentration of 1% DMSO. When potency of compound series increases, more dilutions are prepared and/or the top concentration are lowered (e.g. 5 μM, 1 μM). […]

[2] = biological target: T2, Recombinant human JAK2 catalytic domain (Homo sapiens, UniProt O60674); experiment: JAK2 inhibition assay (polyGT substrate / Ulight-JAK1 peptide assay); assay type: biochemical; settings: Comparative Compounds (Table VIII)
T2 construct: Recombinant human JAK2 catalytic domain (amino acids 808-1132; catalog number PV4210); GST; purchased Invitrogen PV4210
Protocol: Recombinant human JAK2 catalytic domain (amino acids 808-1132; catalog number PV4210) was purchased from Invitrogen. 0.025 mU of JAK2 is incubated with […] polyGT substrate (Sigma catalog number P0275) in kinase reaction buffer (5 mM MOPS pH 7.5, 9 mM MgAc, 0.3 mM EDTA, 0.06% Brij and 0.6 mM DTT, 1 μM non-radioactive ATP, 0.25 μCi ^33P-gamma-ATP (GE Healthcare, catalog number AH9968) final concentrations) with or without 5 μL containing test compound or vehicle (DMSO, 1% final concentration), in a total volume of 25 μL, in a polypropylene 96-well plate (Greiner, V-bottom). After 90 min at 30° C., reactions are stopped by adding of 25 μL/well of 150 mM phosphoric acid. All of the terminated kinase reaction is transferred to prewashed (75 mM phosphoric acid) 96 well filter plates (Perkin Elmer catalog number 6005177) using a cell harvester (Perkin Elmer). Plates are washed 6 times with 300 μL per well of a 75 mM phosphoric acid solution and the bottom of the plates is sealed. 40 μL/well of Microscint-20 is added, the top of the plates is sealed and readout is performed using the Topcount (Perkin Elmer). Kinase activity is calculated by subtracting counts per min (cpm) obtained in the presence of a positive control inhibitor (10 μM staurosporine) from cpm obtained in the presence of vehicle. The ability of a test compound to inhibit this activity is determined as:
as §1
as §2, with “JAK2” for “JAK1”, “is” for “was”
Recombinant human JAK2 (catalytic domain, amino acids 866-1154; catalog number PV4210) was purchased from Invitrogen. 0.0125 mU of JAK2 was incubated with 25 nM Ulight-JAK1 (tyr1023) peptide (Perkin Elmer catalog number TRF0121) in kinase reaction buffer (25 mM HEPES pH7.0, 0.01% Triton X-100, 7.5 mM MgCl2, 2 mM DTT, 7.5 μM ATP) with or without 4 μL containing test compound or vehicle (DMSO, 1% final concentration), in a total volume of 20 μL, in a white 384 Opti plate (Perkin Elmer, catalog number 6007290). After 60 min at room temperature, reactions were stopped by adding 20 μL/well of detection mixture (1× detection buffer (Perkin Elmer, catalog number CR97-100C), 0.5 nM Europium-anti-phosphotyrosine (PT66) (Perkin Elmer, catalog number AD0068), 10 mM EDTA). Readout is performed using the Envision with excitation at 320 nm and measuring emission at 615 nm (Perkin Elmer). Kinase activity was calculated by subtracting relative fluorescence units (RFU) obtained in the presence of a positive control inhibitor (10 μM staurosporine) from RFU obtained in the presence of vehicle. The ability of a test compound to inhibit this activity was determined as: Percentage inhibition=((RFU determined for sample with test compound present−RFU determined for sample with positive control inhibitor) divided by (RFU determined in the presence of vehicle−RFU determined for sample with positive control inhibitor))*100.
as §3, with “series are” for “series were”, “for compound” for “for the compounds”, “the JAK2” for “the JAK1”

T2 sequence (O60674 808-1132): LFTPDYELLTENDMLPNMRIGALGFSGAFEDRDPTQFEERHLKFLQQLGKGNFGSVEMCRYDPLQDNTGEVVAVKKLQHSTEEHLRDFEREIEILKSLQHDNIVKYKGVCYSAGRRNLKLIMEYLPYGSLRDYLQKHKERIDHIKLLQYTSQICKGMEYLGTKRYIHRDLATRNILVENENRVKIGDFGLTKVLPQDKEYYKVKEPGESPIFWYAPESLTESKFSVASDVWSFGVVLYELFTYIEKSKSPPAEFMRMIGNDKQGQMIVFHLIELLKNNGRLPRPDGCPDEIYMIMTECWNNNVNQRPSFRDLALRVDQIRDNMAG
T1 sequence (P23458 866-1154): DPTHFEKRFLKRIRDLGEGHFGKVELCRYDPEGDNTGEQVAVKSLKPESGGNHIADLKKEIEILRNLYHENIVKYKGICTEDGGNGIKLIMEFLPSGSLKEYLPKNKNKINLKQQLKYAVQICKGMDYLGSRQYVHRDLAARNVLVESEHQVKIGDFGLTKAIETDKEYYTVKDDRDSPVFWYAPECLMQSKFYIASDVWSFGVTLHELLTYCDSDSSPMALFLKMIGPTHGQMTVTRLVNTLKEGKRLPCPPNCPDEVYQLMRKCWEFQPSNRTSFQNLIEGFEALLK

IC50 [1]	IC50 [2]	SMILES
> 500 nM	> 500 nM	Cn1cnc2ccc(Nc3ccc(CC#N)cc3)cc21 [A, 2-[4-[(3-methylbenzimidazol-5-yl)amino]phenyl]acetonitrile, reference compound]
> 500 nM	> 500 nM	Cn1cnc2ccc(Nc3ccc4c(c3)OCCO4)cc21 [B, reference compound]
